According to patent US20250090498A1, “TREATMENT OF PRIMARY CTLA-4 CHECKPOINT RELATED IMMUNODEFICIENCIES” (ADIENNE PHARMA & BIOTECH SA, priority 2023, published 2025):
“Also recorded” adds a separate entry of the source.

Assays:
[1] = tested on: DSS+anti-CTLA-4-induced colitis; experiment: DSS+anti-CTLA-4-induced colitis in C57BL/6 mice; type: in vivo; settings: for lymphocytic infiltration, dose dependence: 0.09-0.045-0.022 mg/mouse (4.5, 2.25 and 1.12 mg/kg), lung, spleen, liver, kidney; for efficacy dose: intragastrically every other day, Eudragit formulations
Procedure: In trials, C57BL/6 mice received dextran sulfate sodium (DSS) (3%) in their drinking water and 100 μg anti-CTLA-4 monoclonal antibody (mAb) or isotype control antibody intraperitoneally, at days 0, 4 and 8 following the DSS administration as indicated in FIG. 2A. DSS is a water soluble, negatively charged sulfated polysaccharide with a highly variable molecular weight ranging from 5 to 1400 kDa. […] Eudragit-formulated 3-IAld (Puccetti et al, 2018) was given at 18 mg/kg 3-IAld intragastrically every other day, as illustrated in FIG. 2A. Animals were monitored daily for appearance of diarrhea, fecal blood, loss of body weight and survival. A week after DSS treatment (14 days after initiation of treatment), at the time at which the model recapitulates the human disease (Manicassamy et al, 2014), surviving mice were sacrificed, and the colon was excised and evaluated for macroscopic damage and local immune parameters.
In trials, C57BL/6 mice received dextran sulfate sodium (DSS) (3%) in their drinking water and 100 μg anti-CTLA-4 monoclonal antibody (mAb) or isotype control antibody intraperitoneally, at days 0, 4 and 8 following the DSS administration as indicated in FIG. 17A. Eudragit-formulated 1-methylindole-3-carboxylic acid was given intragastrically every other day, at scaling doses of 0.09, 0.18, or 0.36 mg/mouse (FIG. 17A). Animals were monitored daily for the appearance of diarrhea, fecal blood and loss of body weight. A week after DSS treatment (14 days after initiation of treatment), at the time at which the murine model recapitulates the human disease (Manicassamy et al, 2014), surviving mice were sacrificed and the colon was excised and evaluated for macroscopic damage and local immune parameters. […] CTLA-4 haploinsufficiency typically presents with extensive CD3+T cell infiltration across different organs (Kuehn et al, 2014—Schubert et al, 2014—Schwab et al, 2018).
In the DSS+anti-CTLA-4-induced colitis, mice were treated intragastrically (Eudragit formulations) every other day starting 4 days before DSS treatment and continuing until mice sacrifice. Mice were evaluated for disease activity in terms of histopathology, parameters of barrier permeability function and intestinal inflammation.
Assessment of scaling doses of 0.09-0.045-0.022 mg/mouse (corresponding to 4.5, 2.25 and 1.12 mg/kg) in the murine model of immune-mediated colitis (DSS+anti-CTLA-4) was performed as shown in Table 2 below.
C57BL/6 mice were treated with DSS in drinking water for 1 week followed by a recovery period of another week and administered […] of anti-CTLA-4 mAb and 1ME3CA as depicted in the experimental schedule in FIG. 23A. Mice were evaluated for weight change (FIG. 23B), disease activity index (FIG. 23C), clinical morbidity and rectal bleeding (FIG. 23D), colon and ileum histology (FIG. 23E) (PAS staining), ×40 magnification (scale bars, 100 m). Each in vivo experiment includes four to six mice per group (20 mice in each experiment).
Photographs were taken with a high-resolution microscope, lung and spleen ×10 magnification (scale bars, 400 m) and liver and kidney ×20 magnification (scale bars, 200 m).

[2] = toxicology, up to 3 weeks, PAS tissue pathology in C57BL/6 mice; type: in vivo; settings: 0.36-0.18-0.09 mg/mouse intragastrically, enteric microparticles
Procedure: For assess toxicology, C57BL/6 mice received intragastrically escalating doses of 0.36-0.18-0.09 mg/mouse of 3-IAld or 1ME3CA formulated in enteric microparticles for up to 3 weeks as shown in Table 3 below. At the end of treatment, mice were sacrificed, and tissue pathology blindly examined on different organs after PAS staining of different section from each organ. Sections of organs from 4 mice in each group were separately evaluated.

in vivo = settings: C57BL/6, mouse, 18 mg/kg
Procedure: A single-dose pharmacokinetic (PK) study was performed on healthy C57BL/6 mice to compare 1ME3CA and 3-IAld at 0.36 mg/topo dose. Untreated naïve mice were used as the control. […] Blood, obtained by cardiac puncture and collected into EDTA-containing tubes, and organs (brain, lung, intestine, liver and kidney) were assessed. All samples were stored at −80° C. until use. To evaluate 1ME3CA and 3-IAld for functional activity, the expression of AhR-downstream genes were concomitantly evaluated in these mice.

[3] = 1-methylindole-3-carboxylic acid
[4] = 1-methylindole-3-carboxylic acid 0.09, 0.18 or 0.36 mg/mouse every other day
[5] = 1-methylindole-3-carboxylic acid 0.09-0.36 mg/mouse
[6] = 3-IAld 18 mg/kg, colon homogenates
[7] = 3-IAld 18 mg/kg, surviving mice, 14 days
[8] = Eudragit-formulated 3-IAld 18 mg/kg intragastrically every other day

## Cn1cc(C(=O)O)c2ccccc21 [1-methylindole-3-carboxylic acid, 1-Methyl-1H-indole-3-carboxylic acid]
[1]; 0.09-0.045-0.022 mg/mouse
  inflammatory pathology, dose dependence: protects from inflammatory pathology
[1]; listed as 1ME3CA
  lymphocytic infiltration, dose dependence: reduces lymphocytic infiltration in anti-CTLA-4-treated mice in a dose-dependent manner
[1]; listed as MECA
  lymphocytic infiltration, dose dependence: reduces lymphocytic infiltration
[1]; [3]
  Il1b expression in the colon: reduced levels
  Il10 expression in the colon: increased levels
  anti-inflammatory state and AhR activation: promotes an anti-inflammatory state and AhR activation
[1]; [4]
  clinical morbidity and rectal bleeding: protected
  disease activity index: decreased
[1]; [5]
  CD3+ T cell (lymphocytic) infiltration in the lung: effective in reducing; also recorded: reduces lymphocytic infiltration
  CD3+ T cell infiltration in the ileum and colon: significantly reduced
  gut inflammatory pathology (overall): prevent gut inflammatory pathology; also recorded: protects from inflammatory pathology
  normal architectural structure of the colon and ileum: recovery
[1]; 1-methylindole-3-carboxylic acid 0.09-0.36 mg/mouse, colon and ileum
  epithelial barrier function (expression of ZO-1): maintenance
[1]; 1-methylindole-3-carboxylic acid, listed as 1-Methylindole-3-Carboxylic Acid
  expression of the AhR-dependent genes Cyp1a1, the antimicrobial peptide Reg3g, and 1122: Potent Activator
[1]; 1-methylindole-3-carboxylic acid, listed as 1-methylindole-3-carboxylic
  expression of the AhR-dependent genes Cyp1a1, the antimicrobial peptide Reg3g, and 1122: induced the expression
[1]; Eudragit-formulated 1-methylindole-3-carboxylic acid 0.09, 0.18 or 0.36 mg/mouse intragastrically every other day
  body weight loss: significant attenuation
[1]; each dose including 0.09 mg/mouse
  effects at each administered dose: Positive effects
[1]
  efficacy dose: 2.25 mg/kg
[2]
  tissue pathology in different organs (PAS): absence of visible tissue pathology
In vivo; in vivo
  Tmax: 0.5 h

## O=Cc1c[nH]c2ccccc12 [3-IAld, 1H-indole-3-carbaldehyde]
[1]; 3-IAld 18 mg/kg
  anti-inflammatory state: promotes an anti-inflammatory state
  epithelial barrier integrity: provides epithelial barrier integrity
  expression of IL-22 (gene and protein): induced expression
  expression of Lgr5, Nfil3 and Muc1: promoted the expression
  expression of the AhR-dependent genes Cyp1a1 and Ahrr: induced expression
  expression of the antimicrobial peptide Reg37: induced expression
[1]; 3-IAld 18 mg/kg intragastrically every other day
  gut inflammatory pathology (overall): prevent gut inflammatory pathology; also recorded: protects from inflammatory pathology
[1]; [6]
  amounts of IL-10: increased amounts
  levels of TNF-α, IL-10 and IL-17A: reduced levels
  levels of calprotectin: reduced
[1]; 3-IAld 18 mg/kg, serum
  passage of dextran-FITC across the intestinal barrier: reduced
[1]; [7]
  epithelial barrier function (expression of ZO-1): recovery
  epithelial cell proliferation and renewal (Ki-67 staining): recovery
  gross pathology: improved
  normal architecture structure of the colon: recovery
[1]; [8]
  body weight: increased
  disease activity index: decreased
  survival: increased
[1]
  efficacy dose: 18 mg/kg
[2]
  tissue pathology in different organs (PAS): absence of visible tissue pathology
In vivo; po
  half-life: 3 to 5 h
